Data set [1] addresses A2A receptor (Homo sapiens, UniProt P29274). Kind of data set: Inhibition of cAMP production in HEK cells. Type of data set: cell-based. To be noted: HEK-293 cells with A2A receptor. (In general: Changes in cAMP serve as a functional read-out for many G protein-coupled receptors.)
Data set [2] can be described thus: in vitro. Particulars: human, Caco-2, pH 7.4.
Setting [3] is: IC50 (nM) (3 nM NECA as agonist, 0.1% BSA), 3 nM NECA as agonist, 0.1% BSA.
The mark [4] stands for this setting: IC50 (nM) (5 nM NECA as agonist, 2% HSA), 5 nM NECA as agonist, 2% HSA.
The mark [5] stands for this setting: IC50 (nM) (5 μM Adenosine as agonist, 2.0% HSA), 5 μM Adenosine as agonist, 2.0% HSA.

A2A receptor, sequence (P29274 whole entry): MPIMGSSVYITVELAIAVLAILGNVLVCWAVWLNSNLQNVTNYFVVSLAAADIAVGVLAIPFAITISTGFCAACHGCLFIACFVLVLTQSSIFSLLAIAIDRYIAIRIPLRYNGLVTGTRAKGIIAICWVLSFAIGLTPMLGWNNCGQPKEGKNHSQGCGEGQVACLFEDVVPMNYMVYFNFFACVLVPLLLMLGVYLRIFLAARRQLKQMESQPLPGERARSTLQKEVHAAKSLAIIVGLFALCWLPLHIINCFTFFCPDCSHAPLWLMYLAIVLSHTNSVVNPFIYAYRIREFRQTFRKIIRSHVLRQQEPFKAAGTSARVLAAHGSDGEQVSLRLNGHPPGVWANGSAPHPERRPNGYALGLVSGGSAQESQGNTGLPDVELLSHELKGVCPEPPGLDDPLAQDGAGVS

Turning to `Nc1nc2c(sc(=O)n2CCN2CCN(c3ccc(C(=O)NCCNCCO)cc3F)CC2)c2nc(-c3ccco3)nn12` [Compound 70, 4-(4-(2-(5-amino-8-(furan-2-yl)-2-oxothiazolo[5,4-e][1,2,4]triazolo[1,5-c]pyrimidin-3(2H)-yl)ethyl)piperazin-1-yl)-3-fluoro-N-(2-((2-hydroxyethyl)amino)ethyl)benzamide], the IC50 in data set [1] (setting [3]) came to 0.6 nM; in data set [1] (setting [4]), 3 nM; in data set [1] (setting [5]) it was 124 nM. In addition, the efflux ratio at 120 min, 2 μM in data set [2] is 53.

With `NCC(=O)NCCOc1ccc(N2CCN(CCn3c(=O)sc4c3nc(N)n3nc(-c5ccco5)nc43)CC2)c(F)c1` [Compound 71, 2-amino-N-(2-(4-(4-(2-(5-amino-8-(furan-2-yl)-2-oxothiazolo[5,4-e][1,2,4]triazolo[1,5-c]pyrimidin-3(2H)-yl)ethyl)piperazin-1-yl)-3-fluorophenoxy)ethyl)acetamide], the IC50 in data set [1] (setting [3]) stood at 0.4 nM; in data set [1] (setting [4]), 3 nM; in data set [1] (setting [5]) it was 79 nM. In data set [2], the efflux ratio at 120 min, 2 μM amounted to 28.

On to `CC(C)[C@H](N)C(=O)NCCOc1ccc(N2CCN(CCn3c(=O)sc4c3nc(N)n3nc(-c5ccco5)nc43)CC2)c(F)c1` [Compound 72, (S)-2-amino-N-(2-(4-(4-(2-(5-amino-8-(furan-2-yl)-2-oxothiazolo[5,4-e][1,2,4]triazolo[1,5-c]pyrimidin-3(2H)-yl)ethyl)piperazin-1-yl)-3-fluorophenoxy)ethyl)-3-methylbutanamide], for which the IC50 in data set [1] (setting [3]) was 1 nM; in data set [1] (setting [4]), 3 nM; in data set [1] (setting [5]), 86 nM. Besides, the efflux ratio at 120 min, 2 μM in data set [2] amounted to 21.

For the molecule `N#CCOc1cc(N2CCN(CCn3c(=O)sc4c3nc(N)n3nc(-c5ccco5)nc43)CC2)c(F)cc1F` [Compound 74, 2-(5-(4-(2-(5-amino-8-(furan-2-yl)-2-oxothiazolo[5,4-e][1,2,4]triazolo[1,5-c]pyrimidin-3(2H)-yl)ethyl)piperazin-1-yl)-2,4-difluorophenoxy)acetonitrile], the IC50 came out at 1.2 nM in data set [1] (setting [3]), 20 nM in data set [1] (setting [4]) and 495 nM in data set [1] (setting [5]). Moreover, the efflux ratio at 120 min, 2 μM in data set [2] amounted to 4.

For `CS(=O)(=O)CCOc1cc(N2CCN(CCn3c(=O)sc4c3nc(N)n3nc(-c5ccco5)nc43)CC2)c(F)cc1F` [Compound 77, 5-amino-3-(2-(4-(2,4-difluoro-5-(2-(methylsulfonyl)ethoxy)phenyl)piperazin-1-yl)ethyl)-8-(furan-2-yl)thiazolo[5,4-e][1,2,4]triazolo[1,5-c]pyrimidin-2(3H)-one], the IC50 is 0.5 nM in data set [1] (setting [3]), 3 nM in data set [1] (setting [4]) and 158 nM in data set [1] (setting [5]). Further, the efflux ratio at 120 min, 2 μM in data set [2] was found to be 43.

On to `CS(=O)(=O)CCOc1ccc(N2CCN(CCn3c(=O)sc4c3nc(N)n3nc(-c5ccco5)nc43)CC2)c(F)c1` [Compound 78, 5-amino-3-(2-(4-(2-fluoro-4-(2-(methylsulfonyl)ethoxy)phenyl)piperazin-1-yl)ethyl)-8-(furan-2-yl)thiazolo[5,4-e][1,2,4]triazolo[1,5-c]pyrimidin-2(3H)-one], for which the IC50 in data set [1] (setting [3]) amounted to 0.6 nM; in data set [1] (setting [5]) it was 130 nM. In data set [2], the efflux ratio at 120 min, 2 μM is 45.

For `Nc1nc2c(sc(=O)n2CCN2CCN(c3cc4c(cc3F)NC(=O)C4)CC2)c2nc(-c3ccco3)nn12` [Compound 79, 5-amino-3-(2-(4-(6-fluoro-2-oxoindolin-5-yl)piperazin-1-yl)ethyl)-8-(furan-2-yl)thiazolo[5,4-e][1,2,4]triazolo[1,5-c]pyrimidin-2(3H)-one], the values for the IC50 in data set [1] (setting [3]) and in data set [1] (setting [5]) were 0.3 nM and 77 nM, respectively. Moreover, the efflux ratio at 120 min, 2 μM in data set [2] came to 47.

As to `CS(=N)(=O)c1ccc(N2CCN(CCn3c(=O)sc4c3nc(N)n3nc(-c5ccco5)nc43)CC2)c(F)c1` (centres unmarked) [Compound 80, 5-amino-3-(2-(4-(2-fluoro-4-(S-methylsulfonimidoyl)phenyl)piperazin-1-yl)ethyl)-8-(furan-2-yl)thiazolo[5,4-e][1,2,4]triazolo[1,5-c]pyrimidin-2(3H)-one], the IC50 in data set [1] (setting [3]) stood at 0.4 nM; in data set [1] (setting [5]), 146 nM. Further, the efflux ratio at 120 min, 2 μM in data set [2] is 149.

As to `Cc1cc(N2CCN(CCn3c(=O)sc4c3nc(N)n3nc(-c5ccco5)nc43)CC2)c(F)cn1` [Compound 82, 5-amino-3-(2-(4-(5-fluoro-2-methylpyridin-4-yl)piperazin-1-yl)ethyl)-8-(furan-2-yl)thiazolo[5,4-e][1,2,4]triazolo[1,5-c]pyrimidin-2(3H)-one], the IC50 came out at 0.2 nM in data set [1] (setting [3]) and 15 nM in data set [1] (setting [5]). Moreover, the efflux ratio at 120 min, 2 μM in data set [2] was determined as 3.

Take `Nc1nc2c(sc(=O)n2CCN2CCN(c3ccc(O[C@@H]4COC[C@H]4O)cc3F)CC2)c2nc(-c3ccco3)nn12` [Compound 83, 5-amino-3-(2-(4-(2-fluoro-4-(((3R,4R)-4-hydroxytetrahydrofuran-3-yl)oxy)phenyl)piperazin-1-yl)ethyl)-8-(furan-2-yl)thiazolo[5,4-e][1,2,4]triazolo[1,5-c]pyrimidin-2(3H)-one]: the results for the IC50 in data set [1] (setting [3]) and in data set [1] (setting [5]) were 0.4 nM and 212 nM, respectively. For the same molecule, the efflux ratio at 120 min, 2 μM in data set [2] is 29.

As to `Nc1nc2c(sc(=O)n2CCN2CCN(c3ccc(O[C@H]4COC[C@@H]4O)cc3F)CC2)c2nc(-c3ccco3)nn12` [Compound 84, 5-amino-3-(2-(4-(2-fluoro-4-(((3S,4S)-4-hydroxytetrahydrofuran-3-yl)oxy)phenyl)piperazin-1-yl)ethyl)-8-(furan-2-yl)thiazolo[5,4-e][1,2,4]triazolo[1,5-c]pyrimidin-2(3H)-one], the IC50 in data set [1] (setting [3]) came out at 0.1 nM; in data set [1] (setting [5]), 71 nM. In addition, in data set [2], the efflux ratio at 120 min, 2 μM came to 24.

`CC(C)(O)COc1ccc(N2CCN(CCn3c(=O)sc4c3nc(N)n3nc(-c5ccco5)nc43)CC2)c(F)c1` [Compound 85, 5-amino-3-(2-(4-(2-fluoro-4-(2-hydroxy-2-methylpropoxy)phenyl)piperazin-1-yl)ethyl)-8-(furan-2-yl)thiazolo[5,4-e][1,2,4]triazolo[1,5-c]pyrimidin-2(3H)-one]: the values for the IC50 in data set [1] (setting [3]) and in data set [1] (setting [5]) were 0.4 nM and 220 nM, respectively. Besides, the efflux ratio at 120 min, 2 μM in data set [2] came out at 5.

On to `CC(C)(O)c1ccc(N2CCN(CCn3c(=O)sc4c3nc(N)n3nc(-c5ccco5)nc43)CC2)c(F)c1` [Compound 86, 5-amino-3-(2-(4-(2-fluoro-4-(2-hydroxypropan-2-yl)phenyl)piperazin-1-yl)ethyl)-8-(furan-2-yl)thiazolo[5,4-e][1,2,4]triazolo[1,5-c]pyrimidin-2(3H)-one], for which the IC50 in data set [1] (setting [3]) came to 0.6 nM; in data set [1] (setting [5]), 747 nM. The efflux ratio at 120 min, 2 μM in data set [2] came to 5.

For `Nc1nc2c(sc(=O)n2CCN2CCN(c3ccc(OCC(O)C(F)(F)F)cc3F)CC2)c2nc(-c3ccco3)nn12` (centres unmarked) [Compound 87, 5-amino-3-(2-(4-(2-fluoro-4-(3,3,3-trifluoro-2-hydroxypropoxy)phenyl)piperazin-1-yl)ethyl)-8-(furan-2-yl)thiazolo[5,4-e][1,2,4]triazolo[1,5-c]pyrimidin-2(3H)-one], the IC50 in data set [1] (setting [3]) came out at 1.1 nM; in data set [1] (setting [5]) it was 432 nM. Also, the efflux ratio at 120 min, 2 μM in data set [2] is 7.

By IC50 is commonly meant the concentration that inhibits the measured activity by half. A higher IC50 goes with weaker potency in that assay. In general, efflux ratio refers to the permeability from basolateral to apical divided by that in the opposite direction, in the common usage.

Values taken from US10995101B2, “2-oxo-thiazole derivatives as A2A inhibitors and compounds for use in the treatment of cancers” (iTeos Therapeutics SA, priority 2017, dated 2021).
